Assay results reported in DBAASP.
In brackets after ≈: the same amount, converted by molar mass.

How the values were obtained:
Test in all cases: ≥ marks a high value that may be exact or a test limit, other limits are often not marked, values filed in µg/mL are converted to µM
[1] = system: Pseudomonas aeruginosa ATCC 25668
[2] = system: Acinetobacter sp.
[3] = system: Bacillus subtilis ATCC 6633
[4] = system: Staphylococcus aureus ATCC 9144
[5] = system: Escherichia coli
[6] = system: Escherichia coli ATCC 11775
[7] = system: Staphylococcus aureus BCRC 10780
[8] = system: Vibrio alginolyticus
[9] = system: Staphylococcus sp. BCRC 10451
[10] = system: Vibrio harveyi BCRC 13812
[11] = system: Streptococcus pneumoniae BCRC 10794
[12] = system: Micrococcus luteus BCRC 11034
[13] = system: Xanthomonas vesicatoria B229RI
[14] = system: Salmonella typhimurium
[15] = system: Escherichia coli 1106
[16] = system: Pseudomonas syringae pv. Pisi
[17] = system: Fusarium culmorum
[18] = system: Pseudomonas syringae pv. Maculicola
[19] = system: Escherichia coli D22
[20] = system: Clavibacter michiganensis subsp. michiganensis
[21] = system: Escherichia coli D31
[22] = system: Botrytis cinerea
[23] = system: Fusarium oxysporum L
[24] = system: Bacillus subtilis
[25] = system: Trichoderma viride
[26] = system: Aerococcus viridans
[27] = system: Alternaria brassicicola
[28] = system: Stemphylium sp.
[29] = system: Pseudomonas syringae pv. Valerianella
[30] = system: Pseudomonas syringae
[31] = system: Pseudomonas syringae pv. syringae
[32] = system: Pseudomonas syringae pv. phaseolicola
[33] = system: Staphylococcus aureus
[34] = system: Xanthomonas vesicatoria 687.3
[35] = system: Neurospora crassa
[36] = system: Fusarium oxysporum
[37] = system: Aspergillus fumigatus
[38] = system: Alternaria dauci
[39] = system: Fusarium haematococcum
[40] = system: Fusarium oxysporum M
[41] = system: Micrococcus luteus
[42] = system: Xanthomonas campestris pv. campestris
[43] = system: Bacillus anthracis Sterne 34F2
[44] = system: Bacillus subtilis ATCC 9372
[45] = system: Burkholderia thailandensis
[46] = system: Aspergillus niger
[47] = system: Colletotrichum sp.
[48] = system: Alternaria sp.
[49] = system: Pseudomonas aeruginosa ATCC 27853
[50] = system: Aspergillus ochraceus
[51] = system: Staphylococcus aureus ATCC 25325
[52] = system: Escherichia coli ATCC 35218
[53] = system: Fulvia fulva

CC[C@H](C)[C@H](N)C(=O)N[C@@H](CCCCN)C(=O)N[C@@H](Cc1c[nH]c2ccccc12)C(=O)N[C@@H](C)C(=O)NCC(=O)N[C@@H](CCCCN)C(=O)N[C@@H](CC(C)C)C(=O)N[C@@H](Cc1ccccc1)C(=O)N[C@@H](CCCCN)C(=O)N[C@@H](CC(C)C)C(=O)N[C@@H](Cc1ccccc1)C(=O)N[C@@H](CCCCN)C(N)=O [IKWAGKLFKLFK]
MIC [1]: 5.41 µM (≈ 7.99 µg/mL)
MIC [2]: 21.6 µM (≈ 32 µg/mL)
MIC [3]: 5.41 µM (≈ 7.99 µg/mL)
MIC [4]: 2.7 µM (≈ 4 µg/mL)
MIC [5]: 2.7 µM (≈ 4 µg/mL)
MIC [6]: 0.676 µM (≈ 0.999 µg/mL)

CC[C@H](C)[C@H](NC(=O)[C@H](Cc1ccccc1)NC(C)=O)C(=O)N[C@@H](Cc1ccccc1)C(=O)N[C@@H](Cc1cnc[nH]1)C(=O)N[C@H](C(=O)N[C@H](C(=O)N[C@@H](CCCCN)C(=O)NCC(=O)N[C@@H](CC(C)C)C(=O)N[C@@H](Cc1ccccc1)C(=O)N[C@@H](Cc1cnc[nH]1)C(=O)N[C@@H](C)C(N)=O)[C@@H](C)CC)[C@@H](C)CC [FIFHIIKGLFHA]
MIC [7]: 4.33 µM (≈ 6.43 µg/mL)
MIC [8]: 17.3 µM (≈ 25.7 µg/mL)
MIC [9]: 8.66 µM (≈ 12.9 µg/mL)
MIC [10]: 4.33 µM (≈ 6.43 µg/mL)

CC[C@H](C)[C@H](NC(=O)[C@H](CCCCN)NC(=O)[C@@H]1CCCN1C(=O)[C@@H](NC(=O)[C@H](CC(C)C)NC(=O)[C@H](C)NC(=O)[C@H](Cc1ccccc1)NC(=O)[C@H](Cc1ccccc1)NC(=O)CNC(C)=O)[C@@H](C)CC)C(=O)N[C@H](C(=O)N[C@@H](CO)C(=O)N[C@@H](CO)C(=O)N1CCC[C@H]1C(=O)N[C@@H](CC(C)C)C(=O)N[C@@H](Cc1ccccc1)C(=O)N[C@@H](CCCCN)C(=O)N[C@H](C(=O)N[C@@H](CC(C)C)C(=O)N[C@@H](CC(C)C)C(=O)N[C@@H](CO)C(=O)N[C@@H](C)C(N)=O)[C@@H](C)O)[C@@H](C)CC [GFFALIPKIISSPLFKTLLSA]
MIC [11]: ≥ 44.2 µM
MIC [7]: ≥ 44.2 µM
MIC [9]: 5.52 µM (≈ 12.7 µg/mL)
MIC [12]: ≥ 44.2 µM

CC[C@H](C)[C@@H]1NC(=O)[C@H](CCCCN)NC(=O)[C@H]([C@@H](C)CC)NC(=O)[C@H](CCC(N)=O)NC(=O)[C@H](CCCN=C(N)N)NC(=O)[C@@H](NC(=O)[C@@H](NC(=O)[C@H](CO)NC(=O)[C@@H](N)CCCN=C(N)N)C(C)C)CSSC[C@@H](C(=O)N[C@H](C(=O)N[C@@H](CC(N)=O)C(=O)N[C@@H](CCCN=C(N)N)C(=O)N2CCC[C@H]2C(=O)N[C@@H](Cc2ccc(O)cc2)C(=O)O)[C@@H](C)O)NC(=O)[C@H](CCCCN)NC(=O)[C@H](Cc2ccc(O)cc2)NC(=O)[C@H](Cc2ccc(O)cc2)NC(=O)[C@@H]2CSSC[C@H](NC1=O)C(=O)N[C@@H](CCCN=C(N)N)C(=O)N[C@@H](CCCN=C(N)N)C(=O)N[C@@H](CCCN=C(N)N)C(=O)NCC(=O)NCC(=O)N2 [RSVCRQIKICRRRGGCYYKCTNRPY]
MIC [13]: 2.12 µM (≈ 6.53 µg/mL)
MIC [14]: 4.24 µM (≈ 13.1 µg/mL)
MIC [15]: 9.49 µM (≈ 29.2 µg/mL)
MIC [16]: 9.49 µM (≈ 29.2 µg/mL)
MIC [17]: 4.24 µM (≈ 13.1 µg/mL)
MIC [18]: 4.24 µM (≈ 13.1 µg/mL)
MIC [19]: 30 µM (≈ 92.3 µg/mL)
MIC [20]: 9.49 µM (≈ 29.2 µg/mL)
MIC [21]: 4.24 µM (≈ 13.1 µg/mL)
MIC [22]: 8.49 µM (≈ 26.1 µg/mL)
MIC [23]: 2.83 µM (≈ 8.7 µg/mL)
MIC [24]: 2.12 µM (≈ 6.53 µg/mL)
MIC [25]: 8.49 µM (≈ 26.1 µg/mL)
MIC [26]: 0.424 µM (≈ 1.31 µg/mL)
MIC [27]: 4.24 µM (≈ 13.1 µg/mL)
MIC [28]: 5.66 µM (≈ 17.4 µg/mL)
MIC [29]: 18.2 µM (≈ 55.9 µg/mL)
MIC [30]: 2.12 µM (≈ 6.53 µg/mL)
MIC [31]: 18.2 µM (≈ 55.9 µg/mL)
MIC [32]: 2.12 µM (≈ 6.53 µg/mL)
MIC [33]: 21.2 µM (≈ 65.3 µg/mL)
MIC [34]: 2.12 µM (≈ 6.53 µg/mL)
MIC [35]: 8.49 µM (≈ 26.1 µg/mL)
MIC [36]: 8.49 µM (≈ 26.1 µg/mL)
MIC [37]: ≥ 35.4 µM
MIC [38]: 11.3 µM (≈ 34.8 µg/mL)
MIC [39]: 8.49 µM (≈ 26.1 µg/mL)
MIC [40]: 2.83 µM (≈ 8.7 µg/mL)
MIC [41]: 0.949 µM (≈ 2.92 µg/mL)
MIC [42]: 4.24 µM (≈ 13.1 µg/mL)

CC[C@H](C)[C@H](NC(=O)[C@H](Cc1cnc[nH]1)NC(=O)[C@H](CCCCN)NC(=O)[C@@H](NC(=O)[C@@H](NC(=O)[C@H](CC(=O)O)NC(=O)[C@H](Cc1ccccc1)NC(=O)[C@H](Cc1c[nH]c2ccccc12)NC(=O)CN)C(C)C)C(C)C)C(=O)N[C@@H](C)C(=O)N[C@@H](CO)C(=O)N[C@@H](C)C(=O)N[C@H](C(=O)O)C(C)C [GWFDVVKHIASAV]
MIC [43]: ≥ 100 µM
MIC [44]: ≥ 100 µM
MIC [45]: ≥ 50 µM

CC(C)C[C@H](NC(=O)[C@H](Cc1ccc(O)cc1)NC(=O)[C@H](Cc1cnc[nH]1)NC(=O)[C@@H](NC(=O)[C@H](CC(C)C)NC(=O)[C@H](C)NC(=O)[C@H](C)NC(=O)[C@H](CCCCN)NC(=O)CNC(=O)[C@@H](NC(=O)[C@H](Cc1cnc[nH]1)NC(=O)[C@@H](N)CCCCN)C(C)C)[C@@H](C)O)C(=O)O [KHVGKAALTHYL]
MIC [46]: 4.67 µM (≈ 6.25 µg/mL)
MIC [47]: 2.33 µM (≈ 3.12 µg/mL)
MIC [48]: 4.67 µM (≈ 6.25 µg/mL)
MIC [49]: 9.1 µM (≈ 12.2 µg/mL)
MIC [50]: ≥ 37.4 µM
MIC [36]: 2.33 µM (≈ 3.12 µg/mL)
MIC [51]: 4.6 µM (≈ 6.15 µg/mL)
MIC [52]: 4 µM (≈ 5.35 µg/mL)
MIC [53]: 9.35 µM (≈ 12.5 µg/mL)
